Structures can show the parent of a compound that is named as a salt.
melting point | Structure (SMILES)
186 to 189 °C | CCCc1nc(-c2ccc(F)cc2)[nH]c1-c1ccccc1C(N)=O (as salt: HCl) [Preparation example 101]
266 to 269 °C | Cc1ccc(-c2nc(CO)c(-c3cccnc3)[nH]2)cn1 (as salt: HCl) [Preparation example 114]
204 to 207 °C | COCc1nc(-c2ccc(F)cc2)[nH]c1-c1ccccc1 (as salt: HCl) [Preparation example 121]
185 to 188 °C | COCc1nc(-c2cccc(F)c2)[nH]c1-c1ccccc1 (as salt: HCl) [Preparation example 123]
251 to 255 °C | COCc1nc(-c2ccc(C)nc2)[nH]c1-c1cccnc1 (as salt: HCl) [Preparation example 127]
218 to 220 °C | CSCc1nc(-c2cccc(F)c2)[nH]c1-c1ccccc1 (as salt: HCl) [Preparation example 131]
256 to 259 °C | CSCc1nc(-c2ccc(C#N)cc2)[nH]c1-c1ccccc1 (as salt: HCl) [Preparation example 132]
198 to 200 °C | C[S+]([O-])Cc1nc(-c2cccc(F)c2)[nH]c1-c1ccccc1 (stereo not shown) (as salt: HCl) [Preparation example 136]
179 to 180 °C | OCCc1[nH]c(-c2ccc(Cl)s2)nc1-c1cccnc1 (as salt: hydrochloride) [Preparation example 146, 2-(5-chloro-thiophen-2-yl)-5-hydroxyethyl-4-(3-pyridyl)imidazole]
105 to 107 °C | CCOC(=O)Cc1nc(-c2ccc(OC)cc2)oc1-c1cccs1 [Preparation Example 154]
138 to 139 °C | CCOC(=O)Cc1nc(-c2ccc(F)cc2)oc1-c1cc(C)cs1 [Preparation Example 163]
125 to 127 °C | CCOC(=O)Cc1nc(-c2ccc(C)cc2)oc1-c1cccs1 [Preparation Example 196]
117 to 117.5 °C | CCOC(=O)Cc1nc(-c2ccc(OC)c(F)c2)oc1-c1cccs1 [Preparation Example 382]
77 to 78 °C | CCOC(=O)Cc1nc(-c2ccc(SC)cc2)oc1-c1ccsc1 [Preparation Example 409]
84 to 86 °C | CCOC(=O)Cc1nc(-c2ccc(OC)c(C)c2)oc1-c1ccsc1 [Preparation Example 410]
130 to 133 °C | CCOC(=O)Cc1nc(-c2ccc3ncccc3c2)oc1-c1ccsc1 [Preparation Example 411]
80 to 81 °C | CCOC(=O)Cc1nc(-c2cccc(C)c2)oc1-c1cccs1 [Preparation Example 427]
145 to 146 °C | CCOC(=O)Cc1nc(-c2cnc3occc3c2)oc1-c1ccc(Cl)s1 [Preparation Example 429]
187 to 189 °C | CCOC(=O)c1cc(-c2nc(CC)c(-c3cccnc3)[nH]2)cs1 [Preparation example 11]
200 to 202 °C (dec.) | NC(=O)Cc1nc(-c2ccc(F)cc2)[nH]c1-c1ccsc1 [Preparation example 44]
197 to 198 °C | CCOC(=O)c1nc(-c2ccc(F)cc2)[nH]c1CC [Preparation example 69, ethyl 5-ethyl-2-(4-fluorophenyl)imidazol-4-carboxylate]
225 to 228 °C | OCc1nc(-c2ccc(F)cc2)[nH]c1-c1cccnc1 [Preparation example 113]
232 to 234 °C | OCc1nc(-c2cccc(F)c2)[nH]c1-c1ccccc1 [Preparation example 115]
240 to 243 °C | OCc1nc(-c2ccc(F)cc2)[nH]c1-c1ccccc1 [Preparation example 117]

Continued, molecule first:

Structure (SMILES) | melting point
C[S+]([O-])Cc1[nH]c(-c2ccc(F)cc2)nc1-c1ccccc1 (stereo not shown) (as salt: HCl) [Preparation example 639] | 203 to 204 °C
O=C(O)Cc1nc(-c2ccc(F)cc2)oc1-c1ccccc1 (as salt: Na) [Preparation Example 153] | > 300 °C
COc1ccccc1-c1c[nH]c(-c2ccc(F)cc2)n1 (as salt: hydrochloride) [Preparation example 66, 2-(4-fluorophenyl)-4-(2-methoxyphenyl)imidazole] | 245 to 248 °C
CCc1nc(-c2ccc(F)cc2)[nH]c1Br (as salt: hydrochloride) [Preparation example 77, 5-bromo-4-ethyl-2-(4-fluorophenyl)-imidazole] | 219 to 221 °C (dec.)
CNc1[nH]c(-c2ccc(F)cc2)nc1-c1ccccc1 (as salt: hydrochloride) [Preparation example 107, 5-methylamino-2-(4-fluorophenyl)-4-phenylimidazole] | 253 to 255 °C
CCOC(=O)Cc1nc(-c2ccc(F)cc2)oc1-c1ccccc1F [Preparation Example 161] | 88 to 89 °C
O=C(O)Cc1nc(-c2ccc(F)cc2)oc1-c1cccs1 [Preparation Example 189] | 208 to 209 °C
CCOC(=O)Cc1nc(-c2ccc(Cl)cc2)oc1-c1ccco1 [Preparation Example 191] | 109 to 111 °C
O=C(O)Cc1nc(-c2ccc(Cl)cc2)oc1-c1cccs1 [Preparation Example 192] | 214 to 215 °C
COc1ccc(-c2nc(CC(=O)O)c(-c3ccsc3)o2)cc1 [Preparation Example 200] | 198 to 199 °C
CCOC(=O)Cc1nc(-c2ccc(N(C)C)cc2)oc1-c1ccc(Cl)s1 [Preparation Example 384] | 118 to 119 °C
CCOC(=O)Cc1nc(-c2cc3ccccc3s2)oc1-c1ccsc1 [Preparation Example 408] | 155 to 156.5 °C
CCOC(=O)Cc1nc(-c2ccc(COC(C)=O)cc2)oc1-c1ccc(Cl)s1 [Preparation Example 426] | 112 to 113 °C
CCOC(=O)Cc1nc(-c2ccc3ccccc3n2)oc1-c1ccsc1 [Preparation Example 428] | 168.5 to 169.5 °C
O=C(O)Cc1nc(-c2ccc(F)cc2)oc1-c1ccsc1 [Preparation Example 618] | 207 to 209 °C
OCCc1nc(-c2ccc(F)cc2)oc1-c1ccsc1 [Preparation Example 619] | 110 to 111 °C
Clc1ccc(-c2nc(Cc3nnn[nH]3)c(-c3ccccc3)s2)cc1 [Preparation Example 632, 5-[2-(4-chlorophenyl)-5-phenyl-thiazol-4-ylmethyl]tetrazole] | 213 to 214 °C
Fc1ccc(-c2nc(C3CCCCC3)c(-c3ccsc3)[nH]2)cc1 [Preparation example 45] | 171 to 173 °C
CCCc1c[nH]c(-c2ccc(F)cc2)n1 [Preparation example 76] | 168 to 170 °C
O=CNc1[nH]c(-c2ccc(F)cc2)nc1-c1ccccc1 [Preparation example 105, 5-formylamino-2-(4-fluorophenyl)-4-phenylimidazole] | 245 to 247 °C
O=CCNc1[nH]c(-c2ccc(F)cc2)nc1-c1ccccc1 [Preparation example 106, 5-formylmethylamino-2-(4-fluorophenyl)-4-phenyl-imidazole] | 256 to 258 °C
O=CCCNc1[nH]c(-c2ccc(F)cc2)nc1-c1ccccc1 [Preparation example 111, 5-formylethylamino-2-(4-fluorophenyl)-4-phenylimidazole] | 201 to 202 °C

— US7759373B2, “Large conductance calcium-activated K channel opener” (Mitsubishi Tanabe Pharma Corporation, priority 2001, dated 2010)
